Measured values taken from patent US7601355B2, “Compositions and methods for altering immune function” (Northwestern University, priority 2005, dated 2009).
Entries after “also recorded” stand apart in the source; their conditions may differ.

Assays:
[1] = test system: syngeneic renal cell carcinoma (RCC) cells; experiment: sub-cutaneous renal cell carcinoma tumor model; format: in vivo, Balb/c mice; details: various concentrations, i.p. in olive oil 3x/week for 3 weeks from day 3
Experimental: (§1) In order to evaluate the efficacy of JFPH in a murine tumor model, Balb/c mice were first injected with syngeneic renal cell carcinoma (RCC) cells. The injections were delivered either sub-cutaneously or orthotopically under the kidney capsule (intra-renal). JFPH drug was diluted in olive oil to a desired concentration. Mice were injected with JFPH in olive oil intra-peritoneally 3×/week for a total of 3 weeks, beginning on day 3 post-tumor cell injection. As a vehicle control, mice were administered with only olive oil (no JFPH). For the sub-cutaneous tumor model, primary tumors were measured with calipers 3×/week and the tumor area was calculated. For the intra-renal tumor model, mice were euthanized on day 21 post tumor-cell injection and the lungs were harvested and placed in fixative. The number of lung metastases were then counted under a dissecting microscope.

[2] = test system: syngeneic renal cell carcinoma (RCC) cells; experiment: intra-renal renal cell carcinoma tumor model, lung metastases; format: in vivo, Balb/c mice; details: 500 nmoles i.p. in olive oil 3x/week for 3 weeks
Experimental: as §1

[3] = test system: co-cultures of DC-T cells; experiment: in vitro screen: IFN-γ secretion in DO11.10 T cell / OVA323-339-peptide loaded dendritic cell co-cultures; format: cell-based, mice; details: for IFN-γ enhancement at the highest concentration: 64:1 ratio, 1000 ng/ml; for IFN-γ secretion compared to control samples: initial screen, 16:1 and 64:1 T:DC co-cultures
Experimental: (§2) The initial biological screen for the selected small molecule compounds was based in functional characteristics of enhancement of Th1 function and secretion of Th1 cytokines (e.g., Interferon-γ (IFN-γ)). In this process, dendritic cells (DC) were obtained by GM-CSF stimulation of bone marrow stem cells for 6 days, pulsed for 18 hours with OVA323-339 peptide to load specific antigen on these antigen presenting cells and then purified using CD11c magnetic bead separation. This population of cells is routinely >98% CD11c positive, as determined by flow cytometry. Transgenic T cells with specificity for the ovalbumin 323-339 epitope (OVA323-339) were obtained from naïve spleens of DO11.10 transgenic mice. The splenic cells were harvested and magnetic beads used to isolate the CD4 T cell population. This latter population of cells is routinely >95% CD4^+. The cells were then co-cultured in round-bottomed 96 well tissue culture plates, at varying ratios, maintaining 2×10^5 CD4^+ T cells in each well, and varying the number of dendritic cells added (See FIG. 2).
The in vitro screen for functional activity was based on two parameters. The first parameter, ^3H-thymidine incorporation measuring proliferation of OVA323-339-peptide-specific DO11.10 T cells cultured in the presence of OVA323-339-peptide pulsed GM-CSF derived dendritic cells, should not be affected by CD154-CD40 interactions, and thus was used as a screen for non-specific toxicity of the compounds to immune cell co-cultures. The second parameter, which is controlled in the DO11.10 T cell —OVA323-339-peptide loaded dendritic cell co-cultures by CD40 ligation, is that of Interferon-γ secretion by the activated T cells.
Thus, it was hypothesized that if it was possible to enhance immune function by stabilization of CD154-CD40 ligand pair interactions through prolonged stability of CD154 homotrimers, then IFN-γ production should be increased by addition of the small molecule compounds.
An initial screen was carried out with 18 compounds, using the in vitro screening process established in Example 2, above. Initially, all 18 compounds were evaluated for toxicity at 5 mM and 0.1 μM, by evaluation of proliferation of 16:1 and 64:1 ratio T:DC co-cultures. Second, expression of IFN-γ was observed and compared to that of control samples. Of the initial 18 small molecule compounds, 5 compounds were eliminated at this early stage because they inhibited T cell proliferation and were toxic to the cells in culture. […] These two compounds, JFPH and JFPB, were selected for further study, as described below.
Small molecules in DMSO vehicle were added at various dilutions to co-cultures of DC-T cells and after four days supernatants characterized for the production of IFNγ. […]

DO11.10 T cells = experiment: in vitro screen: 3H-thymidine proliferation of DO11.10 T cells co-cultured with OVA323-339-pulsed dendritic cells (non-specific toxicity screen); format: cell-based, mice; details: 5 mM and 0.1 μM; 16:1 and 64:1 ratio T:DC co-cultures
Experimental: as §2, with “2). […]” for “2).”
An initial screen was carried out with 18 compounds, using the in vitro screening process established in Example 2, above. Initially, all 18 compounds were evaluated for toxicity at 5 mM and 0.1 μM, by evaluation of proliferation of 16:1 and 64:1 ratio T:DC co-cultures. […]

[4] = test system: experimental autoimmune encephalomyelitis (EAE); experiment: mouse model of experimental autoimmune encephalomyelitis (EAE), PLP139-151 peptide in CFA; format: in vivo
Experimental: Experiments were conducted to confirm that the small molecules could stabilize and therefore enhance Th1 effector function in vivo. Efficacy was tested in a mouse model of experimental autoimmune encephalomyelitis (EAE), a model of Multiple Sclerosis (MS) (See, e.g., Karlsson et al., The Journal of Immunology, 2003, 170: 1019-1026).
EAE is dependent upon CD154-CD40 interactions in the central nervous system (CNS). Initial experiments were carried out to determine the effects of these small molecules on clinical disease severity in an optimal process of induction of EAE. The compounds should not modify the severity of clinical disease over that of the vehicle control treated animals, but enhancement and prolonged Th1 responses peripherally may be observed. Second, experiments were conducted to address whether the severity and/or incidence of EAE disease could be enhanced by the small molecule therapy in mice immunized with suboptimal myelin antigenic peptide, such that the small molecules might enhance in vivo functional activity of the antigen specific Th1 cells induced in these mice, that normally would have low incidence and severity of clinical disease.
Mice were immunized with PLP139-151-peptide in CFA and treated on days 9 and 10 with 100 nmol JFPH in olive oil or vehicle alone. Clinical disease was then evaluated. Clinical severity was assessed on a 0 to 5 scale as follows: grade 1, limp tail; grade 2, limp tail and hind limb weakness (waddling gait); grade 3, partial hind limb paralysis; grade 4, complete hind limb paralysis; and grade 5, moribund. The data are plotted as the daily mean clinical score for all animals in a particular treatment group, and mean day of onset for each mouse was determined and plotted (See, FIG. 5(b)) as a box and whisker plot. When optimal EAE induction was carried out using 50 μg doses of PLP139-151 peptide, disease severity was not affected by treatment with 100 nmol JFPH on days 9 and 10 post-immunization. However, the mean day of disease onset was earlier in the JFPH treated mice compared to vehicle controls (p<0.0001) as determined by a Wilcoxon Sign-Rank test.
In experiments where suboptimal induction of EAE was induced with 25 μg doses of PLP139-151 peptide, the incidence of disease was low for vehicle treated mice (60%) compared to that of JFPH treated mice (100%). Briefly, mice were immunized with 25 μg PLP139-151-peptide in CFA and treated on days 0, 1, 8 and 9 with 100 nmol JFPH in olive oil or vehicle of olive oil alone (FIG. 6, treatment days marked by downward triangles). Clinical disease was evaluated and the cumulative mean clinical scores determined by addition of scores cumulatively with each subsequent day of evaluation (FIG. 6, right panel). The average maximum score for vehicle treated mice was 1.2 (due in part to one individual mouse) versus 1.8 for JFPH treated mice, and in both mean day of onset and mean day of peak disease severity, the JFPH treated mice reached these time points an average of 3 days earlier than that of vehicle treated mice.

[5] = suboptimal EAE induction, 25 μg PLP139-151
[6] = suboptimal EAE induction, 25 μg PLP139-151, 100 nmol days 0, 1, 8 and 9

SMILES	sub-cutaneous renal cancer tumor growth (tumor area) versus control mice [1]	renal cancer metastasis (number of lung metastases, day 21) versus control mice [2]	IFN-γ enhancement at the highest concentration [3]	IFN-γ secretion compared to control samples [3]	T cell proliferation (DO11.10 T cells)	disease onset ([4]; EAE induced under suboptimal conditions)	mean day of onset ([4]; optimal EAE induction, 50 μg PLP139-151, 100 nmol days 9 and 10, ± standard deviation) [days]	disease severity (clinical score 0 to 5) ([4]; optimal EAE induction, 50 μg PLP139-151, 100 nmol in olive oil days 9 and 10)	disease onset compared to vehicle controls ([4]; optimal EAE induction, 100 nmol days 9 and 10)	disease course longer than vehicle control [4, 5] [days]	mean day of onset, earlier than vehicle treated mice [4, 5] [days]	mean day of peak disease severity, earlier than vehicle treated mice [4, 5] [days]	average maximum score [4, 6]	incidence of disease [4, 6] [%]	mean day of remission versus vehicle ([4]; suboptimal EAE induction, remission = reduction of one full score for two days)
FC(F)(F)c1cc(N2CCCCCCC2)c2c(Cl)cc(Cl)cc2n1 [JFPH, 4-azocan-1-YL-5,7-dichloro-2-(trifluoromethyl)quinoline]	delays sub-cutaneous growth of renal cancer; also recorded: delayed renal cancer tumor growth	reduces renal cancer metastasis; also recorded: significant reduction of renal cancer metastasis	enhancement was observed	consistently enhanced IFN-γ secretion	no effect	accelerated disease onset	15.47 ± 1.68	not affected	accelerated disease onset; also recorded: earlier	3	3	3	1.8	100	no difference
CCOC(=O)NC(=O)c1cn(CCNc2ncc(C(F)(F)F)cc2Cl)c(=O)[nH]c1=O [JFPB, ethyl N-[[1-(2-[[3-chloro-5-(trifluoromethyl)-2-pyridinyl]amino]ethyl)-2,4-dioxo-1,2,3,4-tetrahydro-5-pyrimidinyl]carbonyl]carbamate]			reduced IFN-γ enhancement	consistently enhanced IFN-γ secretion	no effect										
